SMILES strings stand for the structures. Values joined by “and” are separate entries in the source; they are usually repeats but may differ in a detail not shown here. Equal values may be shown once.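 All cell lines were grown in 96-well plates and treated with compound for 48 hours. Abbreviation: GI50, concentration required for 50% inhibition of growth. TGI is the concentration that stops growth completely.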 Where only a bound is given, the exact number is not on record here.

Some test systems named below: DMS 114 small cell lung; EKVX NSCLC; HOP-62 NSCLC; SW-620 colon; ACHN renal; COLO 205 colon; SF-539 CNS; DMS 273 small cell lung; TK-10 renal; NCI/ADR-RES ovarian; BT-549 breast.
Assay in all cases: NCI-60 cell line screen, 48 h

`CC1(C)OC2C(CO)OC(/N=C(\NC#N)Oc3ccccc3)C2O1` (stereo not drawn): the TGI in the assay with DMS 114 small cell lung, with EKVX NSCLC, with HOP-62 NSCLC, in the assay with SW-620 colon, in the assay on ACHN renal and in the assay on COLO 205 colon was > 100 µM each time. The TGI with SF-539 CNS, with DMS 273 small cell lung and with TK-10 renal was > 100 µM in each case.

As to `c1ccc(C[P+]2(c3ccccc3)CCCCC2)cc1`, the TGI in the assay on DMS 114 small cell lung, in the assay with EKVX NSCLC, with HOP-62 NSCLC, in the assay with SW-620 colon, in the assay with ACHN renal and in the assay with COLO 205 colon was > 100 µM in each case. The TGI in the assay on SF-539 CNS, with DMS 273 small cell lung and with TK-10 renal was > 100 µM in each case.

For the compound `O=C1CCCn2c3ccccc3c3ccnc1c32`, the TGI in the assay on DMS 114 small cell lung was > 100 µM; in the assay on EKVX NSCLC, > 85.2 µM; with HOP-62 NSCLC it was > 100 µM; in the assay on SW-620 colon, > 100 µM; in the assay on NCI/ADR-RES ovarian, > 100 µM; with COLO 205 colon it was > 100 µM. Moreover, the TGI in the assay with SF-539 CNS and with DMS 273 small cell lung was > 100 µM each time.

Take `CSCC[C@@H](NC(=O)[C@H](CC(C)C)NC(=O)C(Cc1cnc[nH]1)NC(=O)CNC(=O)[C@@H](NC(=O)[C@H](C)NC(=O)[C@H](Cc1cn(C=O)c2ccccc12)NC(=O)[C@H](CCC(N)=O)NC(=O)[C@@H](N)CC(N)=O)C(C)C)C(N)=O` (stereo partly drawn): the TGI in the assay on DMS 114 small cell lung, in the assay on EKVX NSCLC, with HOP-62 NSCLC, with SW-620 colon, with NCI/ADR-RES ovarian and in the assay with COLO 205 colon was > 100 µM each time. The TGI in the assay on SF-539 CNS and in the assay with DMS 273 small cell lung was > 100 µM in each case.

With `Cc1cc([C@H](C#N)c2nc3ccccc3s2)nc(Cl)n1`, the TGI is 59.4 µM with EKVX NSCLC; > 100 µM in the assay on HOP-62 NSCLC; 35.6 µM with BT-549 breast; 15.1 µM in the assay on SW-620 colon; 78.5 µM in the assay with ACHN renal; 10.8 µM in the assay with NCI/ADR-RES ovarian. In addition, the TGI in the assay on COLO 205 colon worked out at 6.49 µM; in the assay on SF-539 CNS it was 64 µM; in the assay on TK-10 renal, 44.1 µM.

As for `O=C(O)CC(Cc1ccccc1)C(=O)O` (stereo not drawn), the TGI in the assay on EKVX NSCLC, in the assay with HOP-62 NSCLC, with BT-549 breast, with SW-620 colon, in the assay on ACHN renal and with NCI/ADR-RES ovarian was > 100 µM in each case. For the same compound, the TGI in the assay with COLO 205 colon, in the assay on SF-539 CNS and with TK-10 renal was > 100 µM throughout.

Take `COc1ccc(/C=N/N=C(N)N)c(C(=O)O)c1OC`: the TGI in the assay on DMS 114 small cell lung was > 100 µM; in the assay with EKVX NSCLC, > 100 µM; in the assay with SW-620 colon, > 100 µM; with ACHN renal, > 100 µM; with COLO 205 colon, > 10 µM; with SF-539 CNS it was > 100 µM. Also, the TGI with DMS 273 small cell lung and in the assay on TK-10 renal was > 100 µM in each case.

Turning to `CC12CCC3=C(CSC4=C3CSc3ccccc34)C1=CCCC2=O` (stereo not drawn), the TGI is > 100 µM with DMS 114 small cell lung; > 100 µM in the assay on EKVX NSCLC; > 100 µM in the assay on HOP-62 NSCLC; > 100 µM in the assay on SW-620 colon; > 100 µM in the assay with ACHN renal; 45.8 µM with COLO 205 colon. In addition, the TGI in the assay with SF-539 CNS, in the assay with DMS 273 small cell lung and with TK-10 renal was > 100 µM each time.

`COc1c(Cl)ccc(Cl)c1-c1nnc(-c2c(Cl)c(Cl)c(Cl)c(Cl)c2-c2nc3ccc(C(=O)c4ccccc4)cc3[nH]2)o1`: the TGI in the assay on EKVX NSCLC, in the assay with HOP-62 NSCLC, with BT-549 breast, in the assay on SW-620 colon, in the assay with ACHN renal and in the assay with NCI/ADR-RES ovarian was > 100 µM each time. The values for the TGI in the assay on COLO 205 colon, in the assay with SF-539 CNS and with TK-10 renal were 78.2 µM, 54 µM and > 100 µM, respectively.

`O=c1[nH]nc(Nc2ccccc2)c2nnn(Cc3ccccc3)c12`: the TGI with EKVX NSCLC is > 100 µM; in the assay with HOP-62 NSCLC, 24 µM; with BT-549 breast, > 100 µM; in the assay with SW-620 colon, > 100 µM; in the assay with ACHN renal it was > 100 µM; in the assay on NCI/ADR-RES ovarian, > 100 µM. Besides, the TGI in the assay with COLO 205 colon, in the assay with SF-539 CNS and in the assay with TK-10 renal was > 100 µM in each case.

Consider `O=c1[nH]/c(=C/c2cccs2)c(=O)[nH]/c1=C/c1ccc(OCc2ccccc2)cn1`, for which the TGI in the assay with EKVX NSCLC is > 100 µM; in the assay on HOP-62 NSCLC it was 8.47 µM; with BT-549 breast, 3.75 µM; in the assay with SW-620 colon it was > 100 µM; in the assay with ACHN renal it was > 100 µM; in the assay on NCI/ADR-RES ovarian, 0.475 µM. Also, the TGI with COLO 205 colon turned out to be 12.5 µM; in the assay on SF-539 CNS it was 12.5 µM; in the assay on TK-10 renal, 27.4 µM.

For the compound `CC1CCC(O)/C=C/C(=O)OC(C)C(O)/C=C/C(=O)O1` (stereo not drawn), the TGI in the assay with EKVX NSCLC, with HOP-62 NSCLC, in the assay with BT-549 breast, in the assay on SW-620 colon, in the assay on ACHN renal and in the assay with NCI/ADR-RES ovarian was > 100 µM each time. For the same compound, the TGI with COLO 205 colon, in the assay with SF-539 CNS and with TK-10 renal was > 100 µM throughout.

Consider `CSc1nc(NC2CC2)c2c(n1)Sc1nc3ccccc3n1N=C2`, for which the TGI is 98.7 µM in the assay with EKVX NSCLC; 39.6 µM in the assay on HOP-62 NSCLC; > 100 µM in the assay on BT-549 breast; > 100 µM with SW-620 colon; 31.1 µM with ACHN renal; 69.7 µM with NCI/ADR-RES ovarian. In addition, the TGI is > 100 µM in the assay on COLO 205 colon, 27.4 µM with SF-539 CNS and 62.4 µM in the assay with TK-10 renal.

Consider `NC1=CN2c3ccccc3N(CC(=O)N3CCOCC3)C2C=C1` (stereo not drawn), for which the TGI with EKVX NSCLC, in the assay with HOP-62 NSCLC, in the assay on BT-549 breast, in the assay with SW-620 colon, in the assay on ACHN renal and with NCI/ADR-RES ovarian was > 100 µM throughout. The TGI in the assay on COLO 205 colon, in the assay on SF-539 CNS and with TK-10 renal was > 100 µM in each case.

Take `N#CCCN(CCN(CCN(C(=O)Nc1ccccc1)c1ccccc1)C(=O)Nc1ccccc1)C(=O)Nc1ccccc1`: the TGI in the assay on EKVX NSCLC, in the assay with HOP-62 NSCLC, in the assay on BT-549 breast, in the assay with SW-620 colon, with ACHN renal and in the assay on NCI/ADR-RES ovarian was > 100 µM each time. Moreover, the TGI in the assay with COLO 205 colon, in the assay with SF-539 CNS and in the assay with TK-10 renal was > 100 µM throughout.

As for `Cc1cc(S(=O)(=O)Nc2nc(N)n(-c3ccccc3)n2)c(S)cc1Cl`, the TGI in the assay with EKVX NSCLC, with HOP-62 NSCLC, in the assay with BT-549 breast, with SW-620 colon, in the assay on ACHN renal and in the assay on NCI/ADR-RES ovarian was > 100 µM in each case. Moreover, the TGI with COLO 205 colon, in the assay with SF-539 CNS and in the assay on TK-10 renal was > 100 µM throughout.

As for `Cc1cc2nc(N)n[n+]([O-])c2cc1C`, the TGI with EKVX NSCLC, in the assay on HOP-62 NSCLC, in the assay on BT-549 breast, with SW-620 colon, with ACHN renal and in the assay on NCI/ADR-RES ovarian was > 100 µM in each case. The TGI in the assay with COLO 205 colon, in the assay on SF-539 CNS and with TK-10 renal was > 100 µM in each case.

In the case of `COC(=O)c1ccc2c(c1)CCN2C(=O)c1cc2c(cc1Br)OCO2`, the GI50 was 3.77 µM in the assay on EKVX NSCLC; 0.424 µM in the assay with BT-549 breast; 6.56 µM in the assay with ACHN renal; 0.262 µM in the assay on NCI/ADR-RES ovarian; 1.13 µM with COLO 205 colon; 2.93 µM with SF-539 CNS. Further, in the assay with TK-10 renal, the GI50 is 27.1 µM. Moreover, the TGI is 50 µM and > 100 µM in the assay with EKVX NSCLC; 50 µM and > 100 µM in the assay with HOP-62 NSCLC; 45.5 µM and 5.57 µM in the assay with BT-549 breast; 50 µM and > 100 µM in the assay on SW-620 colon; 49.3 µM and > 100 µM in the assay on ACHN renal; 4.79 µM and 0.693 µM in the assay with NCI/ADR-RES ovarian. Besides, the TGI is 2.62 µM and 3.9 µM in the assay with COLO 205 colon; 37.6 µM and > 100 µM in the assay on TK-10 renal.

For `CC(=O)Nc1ccc(S(=O)(=O)/N=c2/sc(S(N)(=O)=O)nn2C)cc1`, the TGI in the assay with EKVX NSCLC, in the assay on HOP-62 NSCLC, with BT-549 breast, with SW-620 colon, in the assay with ACHN renal and in the assay with NCI/ADR-RES ovarian was > 100 µM each time. Further, the TGI in the assay on COLO 205 colon, with SF-539 CNS and in the assay on TK-10 renal was > 100 µM throughout.

For `c1ccc2c(c1)N=c1ccccc1=P21c2ccccc2Nc2ccccc21`, the TGI in the assay on EKVX NSCLC was > 31.1 µM; in the assay with HOP-62 NSCLC, 8.32 µM; with BT-549 breast, 2.63 µM; with SW-620 colon, 13 µM; in the assay with ACHN renal, 10.9 µM; in the assay with NCI/ADR-RES ovarian, > 100 µM. In addition, the TGI in the assay on COLO 205 colon turned out to be 0.366 µM; in the assay on SF-539 CNS, 9.24 µM; in the assay on TK-10 renal it was 8.12 µM.

The values above are taken from PubChem BioAssay (NCI).
